Source: PMC12595434, “Development of retinoid nuclear receptor pathway antagonists through targeting aldehyde dehydrogenase 1A3” (iScience, 2025)
Values joined by “and” are separate entries in the source; they are usually repeats but may differ in a detail not shown here. Equal values may be shown once.

Legend:
[1] = Serum concentration on MBE1.5-formulated diet; type: in vivo, mouse
Experimental: Finally, to establish a pharmacokinetic profile throughout dosing, MBE1.5 was analyzed in serum 12 h post dose on day 1 and day 7. […] To accommodate consistent plasma concentrations without accumulation, MBE1.5 was formulated to a lower concentration in mouse diet that would administer a dose equivalent to 25 mg/kg daily. This formulated diet was provided to mice for 5 days, at which point serum was analyzed for MBE1.5 concentration at 6:30 a.m. and 4:00 p.m. on day 5 to capture differences in mouse feeding cycles.
No statistical method was used to predetermine the number of animals needed across experiments. […]
proteome profiling in A375 cells was performed in DMSO and at two concentrations of MBE1 using a 10 temperature melting curve for isolation, followed by proteomic analysis, filtering and mapping peptide frequency as a composite melting curve, n=3 biological replicates per condition-temperature. […] ALDH1A3 or NPTN were assessed by WB to confirm the stabilization of ALDH1A3 but not NPTN (55kD, as indicated by arrow) by MBE1. […]
analysis of MBE1.5 following identification of proper formulations and administration to fasted male CD1 mice at 1 mg/kg intravenous (IV) and 10 mg/kg oral gavage (PO). n = 3 mice per arm. […] Upon acclimation, serum MBE1.5 concentrations were calculated following blood draws at 6:30 am and 4 pm. n = 5 mice per arm. […]

AsPC-1 cells = test: Metabolomic profiling of treated cell lines (raw metabolite counts); type: cell-based; conditions: AsPC-1:MBE, replicates
Excerpt: Supplement mmc8.xlsx, sheet "Supplement Table 7" | column: AsPC-1:MBE

CCc1ccccc1C(=O)Nc1cc2c(cc1F)NC(=O)CC2 [MBE1.5, 2-ethyl-N-(7-fluoro-2-oxo-3,4-dihydro-1H-quinolin-6-yl)benzamide]
concentration at 5 day ([1]; C57BL/6, mouse, serum, oral, 25 mg/kg daily, day 5, read-out: nadir serum concentration): ~270 nM
nadir serum concentration as multiple of IC50 in the retinoid assay ([1]; day 5): more than 100 fold

CCc1cnccc1C(=O)Nc1cc2c(cc1F)NC(=O)CC2 [MBE1, 3-ethyl-N-(7-fluoro-2-oxo-3,4-dihydro-1H-quinolin-6-yl)pyridine-4-carboxamide]
Raw counts of 2-Hydroxybutyric acid (AsPC-1 cells): 407527 and 409338 and 391016
Raw counts of 3-Hydroxybutyric acid (AsPC-1 cells): 935326 and 777510 and 811161
Raw counts of 3-Phosphoglycerate (AsPC-1 cells): 27569.7 and 29653.8 and 33692.4
Raw counts of 3-Phosphoserine (AsPC-1 cells): 0
Raw counts of 6-Phosphogluconate (AsPC-1 cells): 2283.86 and 2700.65 and 2716.13
Raw counts of Carbamoyl phosphate (AsPC-1 cells): 77497 and 91797.1 and 80487.7
Raw counts of Citrulline (AsPC-1 cells): 767940 and 822514 and 761078
Raw counts of Cytidine (AsPC-1 cells): 42547.3 and 33951.9 and 31568.3
Raw counts of Hypoxanthine (AsPC-1 cells): 6602890 and 6349420 and 6667202
Raw counts of Isoleucine (AsPC-1 cells): 8463643 and 7729570 and 8029520
Raw counts of Lactate (AsPC-1 cells): 2.84E+08 and 2.40E+08 and 2.49E+08
Raw counts of Leucine (AsPC-1 cells): 1.56E+07 and 1.48E+07 and 1.55E+07
Raw counts of Methionine (AsPC-1 cells): 3519797 and 3454298 and 3337800
Raw counts of N-acetyl-glutamine (AsPC-1 cells): 14303 and 11323.4 and 0
Raw counts of Orotate (AsPC-1 cells): 62546.3 and 65785 and 58119.5
Raw counts of Phenylalanine (AsPC-1 cells): 9403483 and 9101309 and 9197218
Raw counts of Phosphoenolpyruvate (AsPC-1 cells): 23786.2 and 24455.1 and 27616
Raw counts of Pyridoxine (AsPC-1 cells): 1078977 and 951150 and 1075404
Raw counts of Pyruvate (AsPC-1 cells): 3.56E+07 and 3.45E+07 and 3.67E+07
Raw counts of Ribitol (AsPC-1 cells): 1829543 and 1600997 and 2014101
Raw counts of Sorbitol (AsPC-1 cells): 2.37E+07 and 2.26E+07 and 2.62E+07
Raw counts of Taurine (AsPC-1 cells): 5285632 and 4263876 and 4897168
Raw counts of Tryptophan (AsPC-1 cells): 2709598 and 2662217 and 2730749
Raw counts of Tyrosine (AsPC-1 cells): 5411932 and 5220208 and 5418708
Raw counts of UDP (AsPC-1 cells): 31905 and 38800.3 and 38337.9
Raw counts of Uracil (AsPC-1 cells): 1743558 and 1602379 and 1692033
Raw counts of Uridine (AsPC-1 cells): 1071683 and 996648 and 1101788
Raw counts of Valine (AsPC-1 cells): 1.20E+07 and 1.17E+07 and 1.23E+07
Raw counts of Xanthine (AsPC-1 cells): 6452708 and 5994216 and 6427826
